Data from PubChem BioAssay AID2060506 (Molecular Pharmacology Branch, DTP, NCI, 2025).

Tested on: 598228-144-R-J1-PDC complex spheroid viability
Experiment: Anticancer human tumor 598228-144-R-J1-PDC patient-derived serous endometrial adenocarcinoma cell line growth inhibition [GQUAD]
Details: for IC50: curve of first compound; for viability, T/C: stronger effect = lower value
Summary of the method: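 Multi-cell-type spheroids of tumor cells with HUVEC and mesenchymal stem cells, treated with drug combinations. Concentrations descend in half-log steps from near clinical Cmax, or from 10 microM where Cmax is unknown; viability read-out.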

[1] = second compound 0.0316 µM, first compound 0.0316 µM
[2] = second compound 0.0316 µM, first compound 0.1 µM
[3] = second compound 0.0316 µM, first compound 0.316 µM
[4] = second compound 0.0316 µM, first compound 1 µM
[5] = second compound 0.0316 µM, first compound 3.16 µM
[6] = second compound 0.0316 µM, first compound 10 µM
[7] = second compound 0.1 µM, first compound 0.0316 µM
[8] = second compound 0.1 µM, first compound 0.1 µM
[9] = second compound 0.1 µM, first compound 0.316 µM
[10] = second compound 0.1 µM, first compound 1 µM
[11] = second compound 0.1 µM, first compound 3.16 µM
[12] = second compound 0.1 µM, first compound 10 µM
[13] = second compound 0.316 µM, first compound 0.0316 µM
[14] = second compound 0.316 µM, first compound 0.1 µM
[15] = second compound 0.316 µM, first compound 0.316 µM
[16] = second compound 0.316 µM, first compound 1 µM
[17] = second compound 0.316 µM, first compound 3.16 µM
[18] = second compound 0.316 µM, first compound 10 µM
[19] = second compound 1 µM, first compound 0.0316 µM
[20] = second compound 1 µM, first compound 0.1 µM
[21] = second compound 1 µM, first compound 0.316 µM
[22] = second compound 1 µM, first compound 1 µM
[23] = second compound 1 µM, first compound 3.16 µM
[24] = second compound 1 µM, first compound 10 µM
[25] = second compound 3.16 µM, first compound 0.0316 µM
[26] = second compound 3.16 µM, first compound 0.1 µM
[27] = second compound 3.16 µM, first compound 0.316 µM
[28] = second compound 3.16 µM, first compound 1 µM
[29] = second compound 3.16 µM, first compound 3.16 µM
[30] = second compound 3.16 µM, first compound 10 µM
[31] = second compound 10 µM, first compound 0.0316 µM
[32] = second compound 10 µM, first compound 0.1 µM
[33] = second compound 10 µM, first compound 0.316 µM
[34] = second compound 10 µM, first compound 1 µM
[35] = second compound 10 µM, first compound 3.16 µM
[36] = second compound 10 µM, first compound 10 µM
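Note: spheroids exposed to the agents for one week before reading.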
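Throughout, for viability, T/C: percent of vehicle DMSO control viability so 100% = untreated growth.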

COc1cc(C2c3cc4c(cc3C(OC3OC5COC(C)OC5C(O)C3O)C3COC(=O)C23)OCO4)cc(OC)c1O (centres undefined) + Cc1[nH]c2ccc(F)cc2c1-c1nc2c3cccnc3c3ncccc3c2[nH]1
IC50 (second compound 0.0316 µM): > 10000 nM | IC50 (second compound 0.1 µM): > 10000 nM | IC50 (second compound 0.316 µM): > 10000 nM | IC50 (second compound 1 µM): 4150 nM | IC50 (second compound 3.16 µM): < 31.6 nM | IC50 (second compound 10 µM): 4490 nM | viability, T/C [1]: 91.8% | viability, T/C [2]: 85.6% | viability, T/C [3]: 87% | viability, T/C [4]: 71% | viability, T/C [5]: 60.4% | viability, T/C [6]: 51.3% | viability, T/C [7]: 92.9% | viability, T/C [8]: 77.5% | viability, T/C [9]: 66.2% | viability, T/C [10]: 71.8% | viability, T/C [11]: 68.7% | viability, T/C [12]: 48.6% | viability, T/C [13]: 119% | viability, T/C [14]: 72% | viability, T/C [15]: 76.7% | viability, T/C [16]: 66% | viability, T/C [17]: 66% | viability, T/C [18]: 47.6% | viability, T/C [19]: 62.6% | viability, T/C [20]: 59.5% | viability, T/C [21]: 58.5% | viability, T/C [22]: 44.7% | viability, T/C [23]: 62% | viability, T/C [24]: 43.1% | viability, T/C [25]: 43.2% | viability, T/C [26]: 42% | viability, T/C [27]: 39.3% | viability, T/C [28]: 46.2% | viability, T/C [29]: 38.2% | viability, T/C [30]: 43.5% | viability, T/C [31]: 54.6% | viability, T/C [32]: 62.9% | viability, T/C [33]: 55.7% | viability, T/C [34]: 47.9% | viability, T/C [35]: 61.9% | viability, T/C [36]: 34.9%

COc1cccc2c1C(=O)c1c(O)c3c(c(O)c1C2=O)CC(O)(C(=O)CO)CC3OC1CC(N)C(O)C(C)O1 (centres undefined) + Cc1[nH]c2ccc(F)cc2c1-c1nc2c3cccnc3c3ncccc3c2[nH]1
IC50 (second compound 0.0316 µM): 658 nM | IC50 (second compound 0.1 µM): 889 nM | IC50 (second compound 0.316 µM): 1040 nM | IC50 (second compound 1 µM): 418 nM | IC50 (second compound 3.16 µM): < 31.6 nM | IC50 (second compound 10 µM): 646 nM | viability, T/C [1]: 97.1% | viability, T/C [2]: 81.6% | viability, T/C [3]: 69.8% | viability, T/C [4]: 42.8% | viability, T/C [5]: 5.14% | viability, T/C [6]: 0.27% | viability, T/C [7]: 88.7% | viability, T/C [8]: 77.2% | viability, T/C [9]: 78.6% | viability, T/C [10]: 47% | viability, T/C [11]: 2.77% | viability, T/C [12]: 0.42% | viability, T/C [13]: 84.7% | viability, T/C [14]: 72.8% | viability, T/C [15]: 74.7% | viability, T/C [16]: 51.9% | viability, T/C [17]: 3.76% | viability, T/C [18]: 1.38% | viability, T/C [19]: 67.3% | viability, T/C [20]: 48.8% | viability, T/C [21]: 54.3% | viability, T/C [22]: 34.7% | viability, T/C [23]: 4.19% | viability, T/C [24]: 1.39% | viability, T/C [25]: 38.9% | viability, T/C [26]: 36.8% | viability, T/C [27]: 31.8% | viability, T/C [28]: 25.4% | viability, T/C [29]: 1.9% | viability, T/C [30]: 1.11% | viability, T/C [31]: 57.1% | viability, T/C [32]: 72.3% | viability, T/C [33]: 49% | viability, T/C [34]: 46.1% | viability, T/C [35]: 5.49% | viability, T/C [36]: 0.68%
